These results are taken from ChEMBL document CHEMBL1137738, “Synthesis of a series of 8-(substituted-phenyl)xanthines and a study on the effects of substitution pattern of phenyl substituents on affinity for adenosine A(1) and A(2A) receptors” (Eur J Med Chem, 2009).

pKi: −log10 of the molar value.

In one assay the target is Adenosine receptor A2a (Homo sapiens, UniProt P29274). As to the kind of experiment: biochemical.
The next assay concerns the target T1, Adenosine receptor A1 (Homo sapiens, UniProt P30542).
T1 sequence (P30542 whole entry): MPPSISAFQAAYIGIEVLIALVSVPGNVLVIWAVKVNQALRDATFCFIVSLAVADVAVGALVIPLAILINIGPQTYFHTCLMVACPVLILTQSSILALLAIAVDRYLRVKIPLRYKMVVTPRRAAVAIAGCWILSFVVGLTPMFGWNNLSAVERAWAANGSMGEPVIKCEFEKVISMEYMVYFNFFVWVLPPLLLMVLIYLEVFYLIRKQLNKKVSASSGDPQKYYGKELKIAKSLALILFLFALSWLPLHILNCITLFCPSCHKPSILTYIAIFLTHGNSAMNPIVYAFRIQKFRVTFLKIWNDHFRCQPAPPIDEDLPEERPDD
The experiment in a line: biochemical.

For another assay, the species on record is Homo sapiens. As to the kind of experiment: Selectivity ratio of Ki for human cloned adenosine A1 receptor to Ki for human cloned adenosine A2A receptor.
Assay [1] in a line: Selectivity for adenosine A1 receptor over adenosine A2 receptor.

Chain of Adenosine receptor A2a (P29274 whole entry): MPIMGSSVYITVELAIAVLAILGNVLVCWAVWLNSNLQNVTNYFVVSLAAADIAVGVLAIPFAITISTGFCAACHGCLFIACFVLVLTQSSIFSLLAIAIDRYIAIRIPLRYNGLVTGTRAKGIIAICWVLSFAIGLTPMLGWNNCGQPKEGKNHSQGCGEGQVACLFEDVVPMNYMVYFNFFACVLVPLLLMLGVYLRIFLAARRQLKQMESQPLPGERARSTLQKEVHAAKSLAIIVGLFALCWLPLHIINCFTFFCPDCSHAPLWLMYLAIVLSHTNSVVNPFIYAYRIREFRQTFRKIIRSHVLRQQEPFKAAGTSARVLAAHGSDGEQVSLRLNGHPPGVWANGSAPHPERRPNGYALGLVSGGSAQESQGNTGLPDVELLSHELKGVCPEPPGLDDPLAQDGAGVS
Description for Adenosine receptor A1: Displacement of [3H]DPCPX from human cloned adenosine A1 receptor expressed in CHOK1 cells by scintillation counting

Usually pKi stands for the Ki on a negative log10 scale, so that one unit is a factor of ten. A low value points to a large Ki. As for `COc1cc(-c2nc3c([nH]2)c(=O)n(C)c(=O)n3C)ccc1OCCN1CCOCC1`, the pKi was 4.00 on Adenosine receptor A2a and less than 4.00 on Adenosine receptor A1.

Turning to `COc1ccc(-c2nc3c([nH]2)c(=O)n(C)c(=O)n3C)cc1OCCN(C)C`, the results for the pKi on Adenosine receptor A2a and on Adenosine receptor A1 were 6.40 and 4.87, respectively. Besides, the Ratio Ki in the assay filed under Homo sapiens was found to be 30.

`CCCn1c(=O)c2[nH]c(-c3ccc(OC)cc3O)nc2n(CCC)c1=O`: in assay [1], the fold change (FC) came to 90.

As to `Cn1c(=O)c2[nH]c(-c3cccc(OCCN4CCCCC4)c3)nc2n(C)c1=O`, the results for the negative-log Ki (pKi) at Adenosine receptor A2a and at Adenosine receptor A1 were 6.10 and 5.68, respectively.

For `COc1ccc(-c2nc3c([nH]2)c(=O)n(C)c(=O)n3C)cc1OCCN1CCCCC1`, the figures for the pKi on Adenosine receptor A2a and at Adenosine receptor A1 were 5.57 and less than 4.00, respectively. Further, the Ratio Ki in the assay filed under Homo sapiens amounted to 38.

For the compound `CN(C)CCOc1cccc(-c2nc3c([nH]2)c(=O)n(C)c(=O)n3C)c1`, the pKi on Adenosine receptor A2a is 6.40; on Adenosine receptor A1 it was 6.10.

`CCN(CC)CCOc1cccc(-c2nc3c([nH]2)c(=O)n(C)c(=O)n3C)c1`: the pKi on Adenosine receptor A2a is 7.00; at Adenosine receptor A1, 4.85. Further, the Ratio Ki in the assay filed under Homo sapiens turned out to be 140.

Turning to `COc1cc(-c2nc3c([nH]2)c(=O)n(C)c(=O)n3C)ccc1OCCN1CCCCC1`, the pKi is 6.15 at Adenosine receptor A2a and less than 4.00 at Adenosine receptor A1. Moreover, the Ratio Ki in the assay filed under Homo sapiens is 100.

Regarding `CCN(CC)CCOc1cc(-c2nc3c([nH]2)c(=O)n(C)c(=O)n3C)ccc1OC`, the pKi was 6.22 on Adenosine receptor A2a and 4.37 on Adenosine receptor A1. Besides, the Ratio Ki in the assay filed under Homo sapiens came to 70.

`COc1cc(-c2nc3c([nH]2)c(=O)n(C)c(=O)n3C)ccc1OCCN1CCCC1`: the pKi is 6.00 at Adenosine receptor A2a and 4.95 at Adenosine receptor A1. Besides, the Ratio Ki in the assay filed under Homo sapiens was determined as 10.

With `CCN(CC)CCOc1ccc(-c2nc3c([nH]2)c(=O)n(C)c(=O)n3C)cc1OC`, the pKi at Adenosine receptor A2a was 5.96; on Adenosine receptor A1, less than 4.00. In addition, the Ratio Ki in the assay listed under Homo sapiens amounted to 100.

Regarding `COc1ccc(-c2nc3c([nH]2)c(=O)n(C)c(=O)n3C)cc1OCCN1CCOCC1`, the pKi is 7.00 on Adenosine receptor A2a and less than 4.00 at Adenosine receptor A1.

On to `COc1cc(-c2nc3c([nH]2)c(=O)n(C)c(=O)n3C)ccc1OCCN(C)C`, for which the pKi on Adenosine receptor A2a is 6.22; at Adenosine receptor A1, less than 4.00. In addition, the Ratio Ki in the assay listed under Homo sapiens came to 100.

In the case of `Cn1c(=O)c2[nH]c(-c3cccc(OCCN4CCOCC4)c3)nc2n(C)c1=O`, the pKi at Adenosine receptor A2a is 5.85; at Adenosine receptor A1 it was 5.68.

For `Cn1c(=O)c2[nH]c(-c3cccc(OCCN4CCCC4)c3)nc2n(C)c1=O`, the negative-log Ki (pKi) at Adenosine receptor A2a was 6.40; at Adenosine receptor A1, 5.80.
